# Earlier results in article PMC9851200, “Multiparameter phenotypic screening for endogenous TFEB and TFE3 translocation identifies novel chemical series modulating lysosome function” (Autophagy, 2022).
# Legend:
# Set-up in all cases: method as in original PKIS2 published data
# [1] = target: kinases (KINOMEscan panel) (Homo sapiens, UniProt P22455); conditions: Published KINOMEscan; ref original PKIS2 published data; cited from earlier work
# [2] = target: kinases (KINOMEscan panel) (Homo sapiens, UniProt Q9BYP7); conditions: Published KINOMEscan; ref original PKIS2 published data; cited from earlier work
# Chain of kinases (KINOMEscan panel) (Homo sapiens, UniProt Q9BYP7) (Q9BYP7 whole entry): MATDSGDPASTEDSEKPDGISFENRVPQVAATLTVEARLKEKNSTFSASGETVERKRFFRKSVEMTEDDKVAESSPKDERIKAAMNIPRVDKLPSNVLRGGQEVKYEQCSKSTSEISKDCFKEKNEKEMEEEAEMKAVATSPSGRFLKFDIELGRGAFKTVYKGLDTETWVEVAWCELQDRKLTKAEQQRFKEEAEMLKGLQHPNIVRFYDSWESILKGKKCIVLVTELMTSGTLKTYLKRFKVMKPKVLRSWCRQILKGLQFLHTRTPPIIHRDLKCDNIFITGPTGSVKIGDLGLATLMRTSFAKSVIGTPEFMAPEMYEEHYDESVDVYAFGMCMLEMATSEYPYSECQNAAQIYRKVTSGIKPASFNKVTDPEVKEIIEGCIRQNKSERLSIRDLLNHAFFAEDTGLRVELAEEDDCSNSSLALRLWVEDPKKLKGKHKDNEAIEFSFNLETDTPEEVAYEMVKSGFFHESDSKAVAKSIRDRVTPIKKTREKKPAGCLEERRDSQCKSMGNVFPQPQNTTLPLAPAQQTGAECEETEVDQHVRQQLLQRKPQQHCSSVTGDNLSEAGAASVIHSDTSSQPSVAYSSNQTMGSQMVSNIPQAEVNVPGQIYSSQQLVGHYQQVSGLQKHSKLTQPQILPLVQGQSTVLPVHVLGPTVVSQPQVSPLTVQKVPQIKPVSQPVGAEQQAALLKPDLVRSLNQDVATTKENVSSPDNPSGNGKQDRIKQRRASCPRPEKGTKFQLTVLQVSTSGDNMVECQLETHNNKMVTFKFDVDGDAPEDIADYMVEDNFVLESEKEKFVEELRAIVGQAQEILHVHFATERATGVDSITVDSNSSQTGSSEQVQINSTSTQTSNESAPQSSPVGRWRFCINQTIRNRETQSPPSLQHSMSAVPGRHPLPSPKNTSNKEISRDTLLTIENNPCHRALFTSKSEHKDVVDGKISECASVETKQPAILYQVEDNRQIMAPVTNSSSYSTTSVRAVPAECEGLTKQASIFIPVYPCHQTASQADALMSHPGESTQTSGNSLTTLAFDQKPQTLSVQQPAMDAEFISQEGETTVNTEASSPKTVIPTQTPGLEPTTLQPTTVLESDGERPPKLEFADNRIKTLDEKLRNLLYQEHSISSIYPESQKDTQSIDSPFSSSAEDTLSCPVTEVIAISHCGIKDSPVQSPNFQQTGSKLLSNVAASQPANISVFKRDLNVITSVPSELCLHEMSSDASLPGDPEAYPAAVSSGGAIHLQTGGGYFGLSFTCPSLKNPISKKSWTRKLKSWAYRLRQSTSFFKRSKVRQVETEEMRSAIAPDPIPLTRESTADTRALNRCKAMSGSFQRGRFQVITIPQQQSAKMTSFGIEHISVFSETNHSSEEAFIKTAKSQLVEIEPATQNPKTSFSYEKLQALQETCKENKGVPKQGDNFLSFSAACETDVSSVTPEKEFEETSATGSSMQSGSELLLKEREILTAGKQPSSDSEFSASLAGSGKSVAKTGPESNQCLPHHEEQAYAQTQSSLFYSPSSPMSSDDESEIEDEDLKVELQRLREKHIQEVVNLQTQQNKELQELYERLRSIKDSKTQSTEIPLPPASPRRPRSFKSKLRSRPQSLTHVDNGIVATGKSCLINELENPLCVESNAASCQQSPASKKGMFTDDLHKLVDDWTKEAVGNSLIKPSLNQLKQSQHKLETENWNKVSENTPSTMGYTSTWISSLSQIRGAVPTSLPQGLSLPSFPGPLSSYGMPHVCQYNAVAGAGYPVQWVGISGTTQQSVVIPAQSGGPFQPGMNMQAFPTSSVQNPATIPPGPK
# [3] = target: kinases (KINOMEscan panel) (Homo sapiens, UniProt P42684); conditions: ABL2; Published KINOMEscan; ref original PKIS2 published data; cited from earlier work
# Chain of kinases (KINOMEscan panel) (Homo sapiens, UniProt P42684) (P42684 whole entry): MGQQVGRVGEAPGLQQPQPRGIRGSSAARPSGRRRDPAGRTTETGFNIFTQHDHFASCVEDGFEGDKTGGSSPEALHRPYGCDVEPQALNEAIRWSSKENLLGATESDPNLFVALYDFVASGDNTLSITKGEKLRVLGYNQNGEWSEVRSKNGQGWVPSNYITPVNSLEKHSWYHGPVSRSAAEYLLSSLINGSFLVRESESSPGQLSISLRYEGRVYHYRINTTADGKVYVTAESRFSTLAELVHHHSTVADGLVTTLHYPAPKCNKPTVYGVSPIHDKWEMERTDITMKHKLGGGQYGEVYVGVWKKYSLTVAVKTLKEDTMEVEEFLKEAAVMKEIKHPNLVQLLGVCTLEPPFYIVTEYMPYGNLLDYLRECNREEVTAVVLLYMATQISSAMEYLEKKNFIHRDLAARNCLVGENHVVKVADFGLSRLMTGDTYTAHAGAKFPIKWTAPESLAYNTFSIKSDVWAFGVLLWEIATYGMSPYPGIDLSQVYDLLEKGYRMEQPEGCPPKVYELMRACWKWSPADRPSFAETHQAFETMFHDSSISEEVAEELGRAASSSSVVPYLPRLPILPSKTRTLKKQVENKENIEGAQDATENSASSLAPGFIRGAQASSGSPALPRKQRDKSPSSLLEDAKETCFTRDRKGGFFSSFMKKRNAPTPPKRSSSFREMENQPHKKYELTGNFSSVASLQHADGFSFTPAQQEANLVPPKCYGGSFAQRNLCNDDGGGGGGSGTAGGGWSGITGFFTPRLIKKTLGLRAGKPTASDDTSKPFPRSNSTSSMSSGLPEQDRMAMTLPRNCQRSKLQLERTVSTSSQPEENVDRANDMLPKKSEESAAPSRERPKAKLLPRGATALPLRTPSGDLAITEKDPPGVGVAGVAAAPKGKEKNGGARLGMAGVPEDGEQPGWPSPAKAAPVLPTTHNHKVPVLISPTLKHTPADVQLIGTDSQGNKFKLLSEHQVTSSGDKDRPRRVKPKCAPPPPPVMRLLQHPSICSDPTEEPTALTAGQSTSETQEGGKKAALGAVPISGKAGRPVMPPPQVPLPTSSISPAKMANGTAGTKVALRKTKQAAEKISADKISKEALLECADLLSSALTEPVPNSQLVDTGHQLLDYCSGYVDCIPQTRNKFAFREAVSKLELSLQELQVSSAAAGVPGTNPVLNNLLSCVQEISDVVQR
# [4] = target: T1, kinases (KINOMEscan panel) (Homo sapiens, UniProt O15111); conditions: cited from earlier work
# T1 sequence (O15111 1-745): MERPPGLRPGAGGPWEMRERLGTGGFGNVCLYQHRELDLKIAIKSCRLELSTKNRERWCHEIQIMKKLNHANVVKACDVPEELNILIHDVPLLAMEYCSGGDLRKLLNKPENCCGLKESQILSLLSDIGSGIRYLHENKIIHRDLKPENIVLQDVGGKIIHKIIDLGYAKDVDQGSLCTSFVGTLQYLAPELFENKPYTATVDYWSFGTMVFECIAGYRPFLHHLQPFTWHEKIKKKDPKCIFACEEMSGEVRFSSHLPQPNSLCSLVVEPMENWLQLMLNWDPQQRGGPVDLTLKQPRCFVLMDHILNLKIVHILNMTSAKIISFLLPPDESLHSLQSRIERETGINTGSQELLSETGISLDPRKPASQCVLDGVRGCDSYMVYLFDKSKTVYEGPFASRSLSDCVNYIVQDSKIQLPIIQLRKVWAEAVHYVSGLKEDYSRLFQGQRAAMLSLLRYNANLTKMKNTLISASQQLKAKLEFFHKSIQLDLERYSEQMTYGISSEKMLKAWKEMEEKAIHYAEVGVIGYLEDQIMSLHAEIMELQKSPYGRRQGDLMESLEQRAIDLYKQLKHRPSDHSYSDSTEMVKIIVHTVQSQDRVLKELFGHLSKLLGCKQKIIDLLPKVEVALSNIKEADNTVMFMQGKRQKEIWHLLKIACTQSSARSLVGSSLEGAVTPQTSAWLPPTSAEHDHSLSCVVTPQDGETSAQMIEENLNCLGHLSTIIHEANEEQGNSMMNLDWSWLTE
# [5] = target: T2, kinases (KINOMEscan panel) (Homo sapiens, UniProt Q9Y616); conditions: IRAK3; Published KINOMEscan; ref original PKIS2 published data; cited from earlier work
# T2 sequence (Q9Y616 1-596): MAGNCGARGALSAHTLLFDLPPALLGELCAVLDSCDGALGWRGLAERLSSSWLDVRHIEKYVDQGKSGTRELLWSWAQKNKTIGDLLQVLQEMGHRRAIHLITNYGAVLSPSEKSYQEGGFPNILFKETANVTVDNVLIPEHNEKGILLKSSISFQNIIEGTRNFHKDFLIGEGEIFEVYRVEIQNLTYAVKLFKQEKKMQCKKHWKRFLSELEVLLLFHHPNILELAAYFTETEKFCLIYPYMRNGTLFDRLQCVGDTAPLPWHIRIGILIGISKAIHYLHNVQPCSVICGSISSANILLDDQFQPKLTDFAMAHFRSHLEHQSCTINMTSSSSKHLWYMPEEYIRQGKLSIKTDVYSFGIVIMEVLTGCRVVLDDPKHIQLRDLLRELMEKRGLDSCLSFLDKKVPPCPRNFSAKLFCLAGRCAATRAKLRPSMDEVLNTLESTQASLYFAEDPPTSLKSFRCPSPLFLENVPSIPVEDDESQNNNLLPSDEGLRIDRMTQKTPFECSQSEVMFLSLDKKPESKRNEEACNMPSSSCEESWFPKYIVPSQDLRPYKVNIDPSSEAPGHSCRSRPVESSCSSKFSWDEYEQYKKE
# [6] = target: T3, kinases (KINOMEscan panel) (Homo sapiens, UniProt Q9UQB9); conditions: AURKC; Published KINOMEscan; ref original PKIS2 published data; cited from earlier work
# T3 sequence (Q9UQB9 1-309): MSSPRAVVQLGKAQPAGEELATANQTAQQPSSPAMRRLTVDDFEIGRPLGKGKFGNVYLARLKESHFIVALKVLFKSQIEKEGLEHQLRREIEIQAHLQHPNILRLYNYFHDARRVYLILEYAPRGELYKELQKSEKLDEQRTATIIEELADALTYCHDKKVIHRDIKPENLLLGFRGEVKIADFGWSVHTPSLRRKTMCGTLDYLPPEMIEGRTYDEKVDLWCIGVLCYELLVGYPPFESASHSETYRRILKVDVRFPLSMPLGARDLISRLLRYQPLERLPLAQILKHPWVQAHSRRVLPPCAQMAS
# Chain of kinases (KINOMEscan panel) (Homo sapiens, UniProt P22455) (P22455 22-802): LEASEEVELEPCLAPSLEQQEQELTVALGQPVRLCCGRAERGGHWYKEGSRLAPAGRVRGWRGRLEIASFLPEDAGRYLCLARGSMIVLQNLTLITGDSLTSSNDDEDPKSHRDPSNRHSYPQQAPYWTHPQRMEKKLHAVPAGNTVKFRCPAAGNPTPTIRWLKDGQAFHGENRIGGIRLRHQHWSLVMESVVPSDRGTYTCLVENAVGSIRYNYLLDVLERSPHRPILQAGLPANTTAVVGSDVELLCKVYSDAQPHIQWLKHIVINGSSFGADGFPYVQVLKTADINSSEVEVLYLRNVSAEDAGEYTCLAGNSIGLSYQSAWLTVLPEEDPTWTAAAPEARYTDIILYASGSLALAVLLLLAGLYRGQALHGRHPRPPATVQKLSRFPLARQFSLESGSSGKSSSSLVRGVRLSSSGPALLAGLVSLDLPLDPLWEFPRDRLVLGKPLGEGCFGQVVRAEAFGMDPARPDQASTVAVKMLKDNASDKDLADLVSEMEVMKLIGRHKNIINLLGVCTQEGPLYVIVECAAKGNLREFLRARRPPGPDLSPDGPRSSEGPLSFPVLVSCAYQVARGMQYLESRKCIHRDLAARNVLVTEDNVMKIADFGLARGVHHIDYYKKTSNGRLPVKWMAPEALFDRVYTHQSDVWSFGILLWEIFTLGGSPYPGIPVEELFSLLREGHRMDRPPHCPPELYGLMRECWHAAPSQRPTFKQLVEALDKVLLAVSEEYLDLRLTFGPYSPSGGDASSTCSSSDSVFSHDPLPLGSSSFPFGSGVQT
smiles,measurement,setting,value
Cc1cccc(-c2nc(Nc3ccncc3)c3ccccc3n2)n1 [NK215],KINOMEscan FGFR4,[1],6
same,KINOMEscan WNK3,[2],0
same,KINOMEscan ABL2,[3],22
same,KINOMEscan CHUK/IKK-alpha,[4],0
same,KINOMEscan IRAK3,[5],21
same,KINOMEscan AURKC,[6],0
